From the supplement of paper PMC10307832

Assays:
Experiment in all cases: relative viability (nuclei count vs DMSO), 5 days (fraction); higher = more cells survive
[1] = test system: SK-LU-1
Outline: (§1)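 Relative viability is defined as nuclei in treated wells over nuclei in vehicle wells. Duplicate plates were run and medians reported. Lung cancer cell lines in 1536-well plates were dosed by pin tool one day after seeding, with one drug or with a fixed anchor-drug dose plus five library-drug doses (not always all listed) in √10 steps, and nuclei were counted after 5 days.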

[2] = test system: NCI-H2405
Outline: as §1

[3] = test system: LK-2
Outline: as §1

[4] = test system: HCC-827
Outline: as §1

[5] = test system: H3255
Outline: as §1

[6] = test system: LCLC-97TM1
Outline: as §1

[7] = test system: NCI-H522
Outline: as §1

[8] = test system: NCI-H1993
Outline: as §1

[9] = test system: NCI-H2170
Outline: as §1

[10] = test system: NCI-H1650
Outline: as §1

[11] = test system: EPLC-272H
Outline: as §1

[12] = test system: HOP-62
Outline: as §1

[13] = test system: SW 1573
Outline: as §1

[14] = test system: NCI-H3122
Outline: as §1

[15] = test system: NCI-H441
Outline: as §1

[16] = test system: PC-3 [JPC-3]
Outline: as §1

[17] = test system: ChaGo-K-1
Outline: as §1

[18] = test system: LU99A
Outline: as §1

[19] = test system: NCI-H1355
Outline: as §1

[20] = test system: EKVX
Outline: as §1

[21] = test system: LXF-289
Outline: as §1

[22] = test system: UMC-11
Outline: as §1

CN1CCN(CCOc2cc(OC3CCOCC3)c3c(Nc4c(Cl)ccc5c4OCO5)ncnc3c2)CC1 [Saracatinib] + Nc1ncn([C@H]2C[C@H](O)[C@@H](CO)O2)c(=O)n1 [Decitabine] (partner 2 µM)
relative viability ([1]; first compound 0.02 µM): 0.546 | relative viability ([1]; first compound 0.2 µM): 0.526 | relative viability ([1]; first compound 0.6325 µM): 0.594 | relative viability ([1]; first compound 2 µM): 0.405 | relative viability ([2]; first compound 0.02 µM): 0.698 | relative viability ([2]; first compound 0.2 µM): 0.717 | relative viability ([2]; first compound 0.6325 µM): 0.583 | relative viability ([2]; first compound 2 µM): 0.4 | relative viability ([3]; first compound 0.02 µM): 0.337 | relative viability ([3]; first compound 0.2 µM): 0.23 | relative viability ([3]; first compound 0.6325 µM): 0.172 | relative viability ([3]; first compound 2 µM): 0.201 | relative viability ([4]; first compound 0.02 µM): 0.359 | relative viability ([4]; first compound 0.2 µM): 0.225 | relative viability ([4]; first compound 0.6325 µM): 0.19 | relative viability ([4]; first compound 2 µM): 0.151 | relative viability ([5]; first compound 0.02 µM): 0.605 | relative viability ([5]; first compound 0.2 µM): 0.587 | relative viability ([5]; first compound 0.6325 µM): 0.579 | relative viability ([5]; first compound 2 µM): 0.209 | relative viability ([6]; first compound 0.02 µM): 0.244 | relative viability ([6]; first compound 0.2 µM): 0.18 | relative viability ([6]; first compound 0.6325 µM): 0.215 | relative viability ([6]; first compound 2 µM): 0.178 | relative viability ([7]; first compound 0.02 µM): 0.737 | relative viability ([7]; first compound 0.2 µM): 0.665 | relative viability ([7]; first compound 0.6325 µM): 0.705 | relative viability ([7]; first compound 2 µM): 0.627 | relative viability ([8]; first compound 0.02 µM): 0.63 | relative viability ([8]; first compound 0.2 µM): 1.43 | relative viability ([8]; first compound 0.6325 µM): 0.521 | relative viability ([8]; first compound 2 µM): 0.556 | relative viability ([9]; first compound 0.02 µM): 0.453 | relative viability ([9]; first compound 0.2 µM): 0.412 | relative viability ([9]; first compound 0.6325 µM): 0.452 | relative viability ([9]; first compound 2 µM): 0.415 | relative viability ([10]; first compound 0.02 µM): 0.428 | relative viability ([10]; first compound 0.2 µM): 0.519 | relative viability ([10]; first compound 0.6325 µM): 0.431 | relative viability ([10]; first compound 2 µM): 0.365 | relative viability ([11]; first compound 0.02 µM): 0.388 | relative viability ([11]; first compound 0.2 µM): 0.361 | relative viability ([11]; first compound 0.6325 µM): 0.442 | relative viability ([11]; first compound 2 µM): 0.37 | relative viability ([12]; first compound 0.02 µM): 0.222 | relative viability ([12]; first compound 0.2 µM): 0.188 | relative viability ([12]; first compound 0.6325 µM): 0.197 | relative viability ([12]; first compound 2 µM): 0.185 | relative viability ([13]; first compound 0.02 µM): 0.512 | relative viability ([13]; first compound 0.2 µM): 0.481 | relative viability ([13]; first compound 0.6325 µM): 0.458 | relative viability ([13]; first compound 2 µM): 0.434 | relative viability ([14]; first compound 0.02 µM): 0.365 | relative viability ([14]; first compound 0.2 µM): 0.375 | relative viability ([14]; first compound 0.6325 µM): 0.314 | relative viability ([14]; first compound 2 µM): 0.294 | relative viability ([15]; first compound 0.02 µM): 0.221 | relative viability ([15]; first compound 0.2 µM): 0.232 | relative viability ([15]; first compound 0.6325 µM): 0.212 | relative viability ([15]; first compound 2 µM): 0.243 | relative viability ([16]; first compound 0.02 µM): 0.824 | relative viability ([16]; first compound 0.2 µM): 0.711 | relative viability ([16]; first compound 0.6325 µM): 0.695 | relative viability ([16]; first compound 2 µM): 0.555 | relative viability ([17]; first compound 0.02 µM): 0.577 | relative viability ([17]; first compound 0.2 µM): 0.427 | relative viability ([17]; first compound 0.6325 µM): 0.579 | relative viability ([17]; first compound 2 µM): 0.542 | relative viability ([18]; first compound 0.02 µM): 0.857 | relative viability ([18]; first compound 0.2 µM): 0.807 | relative viability ([18]; first compound 0.6325 µM): 0.678 | relative viability ([18]; first compound 2 µM): 0.658 | relative viability ([19]; first compound 0.02 µM): 0.345 | relative viability ([19]; first compound 0.2 µM): 0.35 | relative viability ([19]; first compound 0.6325 µM): 0.358 | relative viability ([19]; first compound 2 µM): 0.354 | relative viability ([20]; first compound 0.02 µM): 0.346 | relative viability ([20]; first compound 0.6325 µM): 0.323 | relative viability ([20]; first compound 2 µM): 0.211 | relative viability ([21]; first compound 0.02 µM): 0.327 | relative viability ([21]; first compound 0.2 µM): 0.314 | relative viability ([21]; first compound 0.6325 µM): 0.387 | relative viability ([21]; first compound 2 µM): 0.36 | relative viability ([22]; first compound 0.02 µM): 0.686 | relative viability ([22]; first compound 0.2 µM): 0.667 | relative viability ([22]; first compound 0.6325 µM): 0.453 | relative viability ([22]; first compound 2 µM): 0.533
